In US8686152B2, “4,4-disubstituted piperidine derivatives useful as inhibitors of dipeptidyl peptidase-1 (DPP-1)” (Janssen Pharmaceutica NV, priority 2010, dated 2014) one finds IC50 data, which are given here for 54 compounds.

The structures appear in SMILES notation. pIC50: −log10 of the molar value. Structures can show the parent of a compound that is named as a salt.

The target in the assay is T1, recombinant human DPP-1 (Cathepsin C) (Homo sapiens, UniProt P53634).
T1 construct: made in house
T1 sequence (P53634 25-463): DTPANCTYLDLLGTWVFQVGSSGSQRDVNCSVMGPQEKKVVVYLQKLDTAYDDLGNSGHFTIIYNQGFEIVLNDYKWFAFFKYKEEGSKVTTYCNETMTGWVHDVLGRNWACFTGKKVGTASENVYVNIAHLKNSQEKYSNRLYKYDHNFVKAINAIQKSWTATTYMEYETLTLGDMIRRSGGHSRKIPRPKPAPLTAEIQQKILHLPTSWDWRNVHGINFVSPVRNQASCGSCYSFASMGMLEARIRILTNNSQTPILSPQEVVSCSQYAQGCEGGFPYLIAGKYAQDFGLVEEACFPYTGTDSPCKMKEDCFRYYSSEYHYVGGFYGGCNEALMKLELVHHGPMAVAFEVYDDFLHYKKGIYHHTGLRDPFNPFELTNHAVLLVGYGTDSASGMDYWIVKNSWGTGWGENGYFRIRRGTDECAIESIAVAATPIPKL
Description: DPP-1 Inhibition Assay (In Vitro), fluorogenic substrate GR-AMC. The note with it: 0.15 nM DPP-1, 10 uM GR-AMC, pH 7.0, room temperature; average value where tested multiple times. It is filed as biochemical. The procedure:
Test compounds were assessed for DPP-1 (Cathepsin C) inhibitory activity using a fluorogenic substrate, GR-AMC (Glycine-Arginine-amino-4-methylcoumarin, Bachem, I-1215). The amount of amino-methylcoumarin released is proportional to the DPP-1 activity, and the reaction is monitored kinetically with a Molecular Devices plate reader using black 96-well plates.
All compounds were tested under room temperature conditions. The assay buffer consisted of 50 mM HEPES, pH 7.0, 100 mM NaCl, 2 mM glutathione (GSH), and 0.002% TWEEN 20. GSH and TWEEN 20 were added to the buffer fresh daily. Just prior to use, an in-house preparation of recombinant human DPP-1 (240 μM stock, MW 49.6 kD) was diluted 600-fold in assay buffer containing fresh 2 mM dithiothreitol (DTT) to activate the enzyme, then diluted into assay buffer (without DTT) 133-fold for a DPP-1 working solution of 3 nM. Test compounds were diluted in DMSO for 20× their final assay concentrations.
Additions to a 96-well black Costar 3915 plates were as follows: 90 μL of 11 μM GR-AMC, 5 μL test compound (followed by mixing), and 5 μL 3 nM DPP-1 to start the reaction. Fluorescent reactions were monitored kinetically at 360 nm excitation, 440 nm emission on a Molecular Devices Spectramax XPS reader. The Softmax Pro software of the reader determined the initial velocity of the selected data (the first 3-5 minutes of the reaction), and the best linear regression fit of the initial kinetic data. Final assay conditions were 0.15 nM DPP-1, 10 uM GR-AMC, 50 mM HEPES, pH 7.0, 100 mM NaCl, 2 mM GSH, 0.002% TWEEN 20, 1 uM DTT, 5.0% DMSO. Initial velocity rates were plotted vs. test compound concentration by use of a four-parameter logistics equation (nonlinear regression, sigmoidal dose-response (variable slope), with fixed Hill (1.0) using GraphPad Prism® software for determination of DPP-1 IC50. Within-run assay coefficient of variation (CV) was generally <10%; between-run CV <20%.
Representative compounds of the present invention were tested according to the procedure as described above, with results as listed in Table 5, below.
In the case of `COC(=O)C1(Cc2ccc(-c3ccccc3)cc2)CCN(C(=O)[C@@H](N)Cc2cccs2)CC1` [Compound 1], the negative-log IC50 (pIC50) is 5.74. The value for `N[C@@H](Cc1cccs1)C(=O)N1CCC(Cc2ccc(-c3ccccc3)cc2)(C(=O)O)CC1` [Compound 2] was below 5.00; that for `N[C@@H](Cc1cccs1)C(=O)N1CCC(Cc2ccc(-c3ccccc3)cc2)(C(=O)NCC2CCCCC2)CC1` [Compound 3, (S)-1-(2-amino-3-(thiophen-2-yl)propanoyl)-4-(biphenyl-4-ylmethyl)-N-(cyclohexylmethyl)piperidine-4-carboxamide hydrochloride] was 7.08.

Turning to `N[C@@H](Cc1cccs1)C(=O)N1CCC(Cc2ccc(-c3ccccc3)cc2)(C(=O)N2CCCCC2)CC1` [Compound 4], the negative-log IC50 (pIC50) was 6.37. The value for `CC[C@H](N)C(=O)N1CCC(Cc2ccc(-c3ccccc3)cc2)(C(=O)NCC2CCCCC2)CC1` [Compound 5] was 5.52; that for `N[C@@H](Cc1cccs1)C(=O)N1CCC(Cc2ccc(-c3ccccc3)cc2)(C(=O)NC2CCCCC2)CC1` [Compound 8] was 7.46.

On to `N[C@@H](Cc1c[nH]cn1)C(=O)N1CCC(Cc2ccc(-c3ccccc3)cc2)(C(=O)NCC2CCCCC2)CC1` [Compound 9], for which the pIC50 is 6.03. As to `CC[C@H](N)C(=O)N1CCC(Cc2ccccc2)(C(=O)OCC2CCCCC2)CC1` [Compound 10], the negative logarithm of the IC50 (pIC50) was around 5.30. The same measure for `N[C@@H](Cc1cccs1)C(=O)N1CCC(Cc2ccccc2)(C(=O)OCC2CCCCC2)CC1` [Compound 11]: 6.66; for `N[C@@H](Cc1c[nH]cn1)C(=O)N1CCC(Cc2ccccc2)(C(=O)OCC2CCCCC2)CC1` [Compound 12]: around 5.30. The same measure for `CC[C@H](N)C(=O)N1CCC(Cc2ccc(Cl)cc2)(C(=O)OCC2CCCCC2)CC1` [Compound 13]: 5.37. The same measure for `N[C@@H](Cc1cccs1)C(=O)N1CCC(Cc2ccc(Cl)cc2)(C(=O)OCC2CCCCC2)CC1` [Compound 14]: 6.46. In the case of `N#Cc1ccc(CC2(C(=O)OCC3CCCCC3)CCN(C(=O)[C@@H](N)Cc3c[nH]cn3)CC2)cc1` [Compound 16], the negative-log IC50 (pIC50) is 5.92.

Turning to `CC[C@H](N)C(=O)N1CCC(Cc2ccc(C#N)cc2)(C(=O)OCC2CCCCC2)CC1` [Compound 17], the negative logarithm of the IC50 (pIC50) is 5.36. The same measure for `N[C@@H](Cc1cccs1)C(=O)N1CCC(Cc2ccc(C(F)(F)F)cc2)(C(=O)OCC2CCCCC2)CC1` [Compound 19]: 6.40.

In the case of `N[C@@H](Cc1c[nH]cn1)C(=O)N1CCC(Cc2ccc(C(F)(F)F)cc2)(C(=O)OCC2CCCCC2)CC1` [Compound 20], the negative logarithm of the IC50 (pIC50) is 5.51. Consider `CC[C@H](N)C(=O)N1CCC(Cc2ccncc2)(C(=O)OCC2CCCCC2)CC1` [Compound 21], for which the pIC50 is 5.13. The same measure for `N[C@@H](Cc1cccs1)C(=O)N1CCC(Cc2ccncc2)(C(=O)OCC2CCCCC2)CC1` [Compound 22]: 7.03. The same measure for `CC[C@H](N)C(=O)N1CCC(Cc2cccnc2)(C(=O)OCC2CCCCC2)CC1` [Compound 23]: 5.09; for `N[C@@H](Cc1cccs1)C(=O)N1CCC(Cc2cccnc2)(C(=O)OCC2CCCCC2)CC1` [Compound 24]: 7.00; for `N[C@@H](Cc1c[nH]cn1)C(=O)N1CCC(Cc2cccnc2)(C(=O)OCC2CCCCC2)CC1` [Compound 25]: 5.74.

Consider `CC[C@H](N)C(=O)N1CCC(Cc2ccc(F)cc2F)(C(=O)OCC2CCCCC2)CC1` [Compound 26], for which the pIC50 was 5.21. In the case of `N[C@@H](Cc1cccs1)C(=O)N1CCC(Cc2ccc(F)cc2F)(C(=O)OCC2CCCCC2)CC1` [Compound 27], the pIC50 was 6.66.

With `N[C@@H](Cc1c[nH]cn1)C(=O)N1CCC(Cc2ccc(F)cc2F)(C(=O)OCC2CCCCC2)CC1` [Compound 28], the pIC50 was 5.77.

As for `N[C@@H](Cc1cccs1)C(=O)N1CCC(Cc2cccc(-c3ccccc3)c2)(C(=O)OCC2CCCCC2)CC1` [Compound 30], the pIC50 was 6.06. The same measure for `N[C@@H](Cc1nccs1)C(=O)N1CCC(Cc2ccc(-c3ccccc3)cc2)(C(=O)NC2CCCCC2)CC1` [Compound 33]: 6.64; for `N#CC[C@H](N)C(=O)N1CCC(Cc2ccc(-c3ccccc3)cc2)(C(=O)NC2CCCCC2)CC1` [Compound 36]: 6.22. The value for `N[C@@H](Cc1ccco1)C(=O)N1CCC(Cc2ccc(-c3ccccc3)cc2)(C(=O)NC2CCCCC2)CC1` [Compound 37] was 6.64.

For `COC[C@H](N)C(=O)N1CCC(Cc2ccc(-c3ccccc3)cc2)(C(=O)NC2CCCCC2)CC1` [Compound 39], the pIC50 is 4.74. The value for `N[C@@H](Cc1cccs1)C(=O)N1CCC(Cc2ccc(-c3ccc4c(c3)OCO4)cc2)(C(=O)NC2CCCCC2)CC1` [Compound 40] was 7.46. The value for `N[C@@H](Cc1cccs1)C(=O)N1CCC(Cc2ccc(I)cc2)(C(=O)NC2CCCCC2)CC1` [Compound 41] was 7.43; that for `N[C@@H](Cc1cccs1)C(=O)N1CCC(Cc2ccc(-c3ccncc3)cc2)(C(=O)NC2CCCCC2)CC1` [Compound 42] was 7.54; that for `N[C@@H](Cc1cccs1)C(=O)N1CCC(Cc2ccc(-c3cncnc3)cc2)(C(=O)NC2CCCCC2)CC1` [Compound 43] was 7.54. Consider `COc1ccc(-c2ccc(CC3(C(=O)NC4CCCCC4)CCN(C(=O)[C@@H](N)Cc4cccs4)CC3)cc2)cn1` [Compound 44], for which the pIC50 was 7.54. The value for `CC(=O)Nc1ccccc1-c1ccc(CC2(C(=O)NC3CCCCC3)CCN(C(=O)[C@@H](N)Cc3cccs3)CC2)cc1` [Compound 45] was 7.28; that for `COc1ncccc1-c1ccc(CC2(C(=O)NC3CCCCC3)CCN(C(=O)[C@@H](N)Cc3cccs3)CC2)cc1` [Compound 46] was 7.42; that for `N[C@@H](Cc1cccs1)C(=O)N1CCC(Cc2ccc(-c3cccnc3Cl)cc2)(C(=O)NC2CCCCC2)CC1` [Compound 48] was 7.41. For the compound `N[C@@H](Cc1cccs1)C(=O)N1CCC(Cc2ccc(-c3ccc(O)nc3)cc2)(C(=O)NC2CCCCC2)CC1` [Compound 49], the negative-log IC50 (pIC50) is 7.62. Turning to `N[C@@H](Cc1cccs1)C(=O)N1CCC(Cc2ccc(-c3cccnc3)cc2)(C(=O)NC2CCCCC2)CC1` [Compound 50], the negative logarithm of the IC50 (pIC50) is 7.46. Consider `N#Cc1ccc(-c2ccc(CC3(C(=O)NC4CCCCC4)CCN(C(=O)[C@@H](N)Cc4cccs4)CC3)cc2)cc1` [Compound 51], for which the negative logarithm of the IC50 (pIC50) was 7.46. The same measure for `N[C@@H](Cc1cccs1)C(=O)N1CCC(Cc2ccc(-c3ccc(C(=O)O)cc3)cc2)(C(=O)NC2CCCCC2)CC1` [Compound 52]: 7.00; for `N[C@@H](Cc1cccs1)C(=O)N1CCC(Cc2ccc(-c3ccc(C(F)(F)F)cc3)cc2)(C(=O)NC2CCCCC2)CC1` [Compound 53]: 6.85. `CC(=O)Nc1cccc(-c2ccc(CC3(C(=O)NC4CCCCC4)CCN(C(=O)[C@@H](N)Cc4cccs4)CC3)cc2)c1` [Compound 54]: the negative logarithm of the IC50 (pIC50) was 7.51. Regarding `N[C@@H](Cc1cccs1)C(=O)N1CCC(Cc2ccc(-c3cccc(C(=O)O)c3)cc2)(C(=O)NC2CCCCC2)CC1` [Compound 55], the pIC50 was 7.00. In the case of `N[C@@H](Cc1cccs1)C(=O)N1CCC(Cc2ccc(C(=O)NC3CCCCC3)cc2)(C(=O)NC2CCCCC2)CC1` [Compound 56], the negative logarithm of the IC50 (pIC50) is 7.31. The same measure for `N[C@@H](Cc1cccs1)C(=O)N1CCC(Cc2ccc(C(=O)N3CCOCC3)cc2)(C(=O)NC2CCCCC2)CC1` [Compound 57]: 7.44. The same measure for `N[C@@H](Cc1cccs1)C(=O)N1CCC(Cc2ccc(C(=O)N3CCCC3)cc2)(C(=O)NC2CCCCC2)CC1` [Compound 58]: 7.14; for `N[C@@H](Cc1cccs1)C(=O)N1CCC(Cc2ccc(C(=O)Nc3ccccc3)cc2)(C(=O)NC2CCCCC2)CC1` [Compound 60]: 7.48. Consider `NC(=O)c1ccc(CC2(C(=O)NC3CCCCC3)CCN(C(=O)[C@@H](N)Cc3cccs3)CC2)cc1` [Compound 61], for which the pIC50 is 7.33.

With `N[C@@H](Cc1cccs1)C(=O)N1CCC(Cc2ccc(C(=O)O)cc2)(C(=O)NC2CCCCC2)CC1` [Compound 62], the pIC50 is 6.44.

In the case of `N[C@@H](Cc1cccs1)C(=O)N1CCC(Cc2cccnc2)(C(=O)NC2CCCCC2)CC1` [Compound 66], the negative logarithm of the IC50 (pIC50) is 7.27. For `CC[C@H](N)C(=O)N1CCC(Cc2cccnc2)(C(=O)NC2CCCCC2)CC1` [Compound 67], the negative logarithm of the IC50 (pIC50) is 5.04.

In the case of `N[C@@H](Cc1c[nH]cn1)C(=O)N1CCC(Cc2cccnc2)(C(=O)NC2CCCCC2)CC1` [Compound 68], the negative logarithm of the IC50 (pIC50) was 6.04. The value for `N[C@@H](Cc1cccs1)C(=O)N1CCC(C(=O)NC2CCCCC2)(c2ccccc2)CC1` [Compound 69] was 7.14.
